From PMC6218659, “Structures of DPAGT1 Explain Glycosylation Disease Mechanisms and Advance TB Antibiotic Design” (Cell, 2018)
≈ marks a conversion by molar mass, not a printed value. Where two headings read alike, the source gives them in different places.

Columns and labels:
B. subtilis EC1524 = experiment: Micro-broth dilution and drop plate antimicrobial susceptibility test; type: cell-based, Bacillus subtilis; details: for IC50 / MBC / MIC: Bacillus subtilis; for Relative Therapeutic Index (RTI), B. subtilis EC1524: minimal lethal dose / MIC, 800 μg mL-1 used for >400
Description: (§1) In a sterile 96-well plate, serial dilutions were made with the test substance to final volume of 50 μl. Inoculum was then prepared in Mueller-Hinton broth to 0.5 McFarland and diluted before adding 50 μl to the well to make ∼1x10^5 CFU/ml. The culture plate was incubated at 35 °C for 20-24 hrs. A positive growth control and sterility wells were also prepared along with the culture wells. Absorbance at OD600 was taken using BMG Labtech SPECTROstar Omega spectrophotometer. MIC is determined by the lowest concentration without growth. IC50 is determined from plotting a dose-response curve, see Data Analysis below. To determine the MBC, using a multi-channel pipette, 1 μl of culture broth was taken from the same 96-well microdilution growth plate and carefully inoculated on surface of MH agar plate. The plate is then incubated for additional 20 hrs. at 35 °C. The MBC value is the lowest concentration without observed growth on the agar.

B. cereus ATCC11778 = experiment: as above; type: cell-based, Bacillus cereus; details: for IC50 / MBC / MIC: Bacillus cereus; for Relative Therapeutic Index (RTI), B. cereus NRRL 11778: minimal lethal dose / MIC, 800 μg mL-1 used for >400
Description: as §1

E. coli ATCC25922 = experiment: as above; type: cell-based; details: Escherichia coli
Description: as §1

P. aeruginosa ATCC27853 = experiment: as above; type: cell-based; details: Pseudomonas aeruginosa
Description: as §1

S. aureus ATCC29219 = experiment: as above; type: cell-based; details: Staphylococcus aureus
Description: as §1

Mtb H37Rv ATCC27294 = experiment: Minimum inhibitory concentrations testing against Mtb; type: cell-based, Mycobacterium tuberculosis; details: for MIC: Mycobacterium tuberculosis, 168 h; for Relative Therapeutic Index (RTI), Mtb H37RV a / Relative Therapeutic Index (RTI), Mtb H37RV b: minimal lethal dose / MIC, 800 μg mL-1 used for >400; for Relative Therapeutic Index (RTI), Mtb H37RV a: 7H9/ADC/Tw; for Relative Therapeutic Index (RTI), Mtb H37RV b: GAST/Fe
HEK293 cells = experiment: Cell proliferation assay (MTS); type: cell-based, human; details: for LD50 values, HEK293: MTS cell proliferation assay, 24 hrs, highest concentration 400 µg mL-1; for Minimal Lethal Dose, HEK 293: serial 2-fold dilutions (Table S6)
Description: (§2) In sterile 96-well plate, each well was seeded with ∼1x10^5 cells. The cells are then grown confluent overnight in 100 μl DMEM with 10% FBS. The medium is replenished with DMEM with 2% FBS and added vehicle control or test substance the next day. For test substance in methanol, stock was added to 25 μl of DMEM with 2% FBS or PBS and placed in the laminar flow hood to let the methanol evaporate (about 1-3 hrs). Once the methanol has evaporated, DMEM with 2% FBS was added to final volume of 100 μl of desired test concentration. […] Cells are grown for additional 24 hrs. The cell viability was determined by using Promega CellTiter 96^© AQueous One Solution Cell Proliferation Assay (3-(4,5-dimethylthiazol-2-yl)-5-(3-carboxymethoxyphenyl)-2-(4-sulfophenyl)-2H-tetrazolium, inner salt; MTS) System following the manufacture protocol.

HepG2 cells = experiment: Cell proliferation assay (MTS); type: cell-based, human; details: for LD50 values, HepG2: MTS cell proliferation assay, 24 hrs, highest concentration 400 µg mL-1; for Minimal Lethal Dose, HepG2: serial 2-fold dilutions (Table S6)
Description: as §2

Raji cells = experiment: Cell proliferation assay (MTS); type: cell-based, human; details: 24 hrs
Description: as §2

[1] = tested on: Mtb-infected J774A.1 macrophages; experiment: Efficacy against Mtb growing in infected macrophages; details: J774A.1 macrophages treated 3 or 7 days
[2] = EC1524, read-out: Minimal Inhibitory Concentration, B. subtilis EC1524
[3] = ATCC 11778 / NRRL11778, read-out: Minimal Inhibitory Concentration, B. cereus NRRL 11778
[4] = read-out: 1-week MIC in 7H9/ADC/Tw
[5] = read-out: 1-week MIC in GAST/Fe
[6] = read-out: Minimal Inhibitory Concentration, Mtb H37RV a
[7] = read-out: Minimal Inhibitory Concentration, Mtb H37RV b

Structure (SMILES) | IC50 (B. subtilis EC1524; EC1524) | MBC (B. subtilis EC1524; EC1524) | MIC (B. subtilis EC1524; EC1524) | MIC (B. subtilis EC1524; [2]) | Relative Therapeutic Index (RTI), B. subtilis EC1524 (B. subtilis EC1524) | IC50 (B. cereus ATCC11778; ATCC11778) | MBC (B. cereus ATCC11778; ATCC11778) | MIC (B. cereus ATCC11778; ATCC11778) | MIC (B. cereus ATCC11778; [3]) | Relative Therapeutic Index (RTI), B. cereus NRRL 11778 (B. cereus ATCC11778) | IC50 (E. coli ATCC25922) | MBC (E. coli ATCC25922) | MIC (E. coli ATCC25922) | IC50 (P. aeruginosa ATCC27853) | MBC (P. aeruginosa ATCC27853) | MIC (P. aeruginosa ATCC27853) | IC50 (S. aureus ATCC29219) | MBC (S. aureus ATCC29219) | MIC (S. aureus ATCC29219) | MIC (Mtb H37Rv ATCC27294; [4]) | also measured
CCCCCCCCCCC(=O)N[C@H]1[C@H](O[C@H]2O[C@H](CO)[C@@H](O)[C@H](O)[C@H]2NC(=O)CCCCCCCCCC)O[C@H](C[C@@H](O)[C@H]2O[C@@H](n3ccc(=O)[nH]c3=O)[C@H](O)[C@@H]2O)[C@H](O)[C@@H]1O [TUN-11,11, Di-N-undecanoyl-tunicamycin] | 0.85 ± 0.28 µg/mL (≈ 0.941 µM) | > 1.56 µg/mL | 1.3 ± 0.45 µg/mL (≈ 1.44 µM) | 1.56 µg/mL (≈ 1.73 µM) | 513 | 0.088 µg/mL (≈ 0.0974 µM) | > 25 µg/mL | 0.65 ± 0.23 µg/mL (≈ 0.72 µM) | 0.78 µg/mL (≈ 0.864 µM) | 1026 | 131 µg/mL (≈ 145 µM) | 400 µg/mL (≈ 443 µM) | 330 ± 120 µg/mL (≈ 365 µM) | 63.2 µg/mL (≈ 69.9 µM) | 400 µg/mL (≈ 443 µM) | 83 ± 29 µg/mL (≈ 91.9 µM) | 58 µg/mL (≈ 64.3 µM) | 400 µg/mL (≈ 443 µM) | 170 ± 60 µg/mL (≈ 188 µM) | 4.1 ± 2.2 µg/mL (≈ 4.54 µM) | MIC (Mtb H37Rv ATCC27294; [5]): 1.6 ± 1.6 µg/mL (≈ 1.77 µM); MIC (Mtb H37Rv ATCC27294; [6]): 4.1 µg/mL (≈ 4.54 µM); MIC (Mtb H37Rv ATCC27294; [7]): 1.6 µg/mL (≈ 1.77 µM); Relative Therapeutic Index (RTI), Mtb H37RV a (Mtb H37Rv ATCC27294): 195; Relative Therapeutic Index (RTI), Mtb H37RV b (Mtb H37Rv ATCC27294): 500; LD50 values, HEK293 (HEK293 cells): N/A (N/A = not available. No or low cytotoxicity observed at highest, saturating concentration tested (400 µg mL-1)); Minimal Lethal Dose, HEK 293 (HEK293 cells): > 400 µg/mL; LD50 values, HepG2 (HepG2 cells): N/A (N/A = not available. No or low cytotoxicity observed at highest, saturating concentration tested (400 µg mL-1)); Minimal Lethal Dose, HepG2 (HepG2 cells): > 400 µg/mL; LD50 values, Raji (Raji cells): 103.65 ± 34.34 µg/mL; reduction of intracellular bacterial burdens ([1]; 1 × MIC): 1 logs; reduction of intracellular bacterial burdens ([1]; 10 × MIC): 2 logs
CC(C)=CCC[C@H](C)CC(=O)N[C@H]1[C@H](O[C@H]2O[C@H](CO)[C@@H](O)[C@H](O)[C@H]2NC(=O)C[C@@H](C)CCC=C(C)C)O[C@H](C[C@@H](O)[C@H]2O[C@@H](n3ccc(=O)[nH]c3=O)[C@H](O)[C@@H]2O)[C@H](O)[C@@H]1O [TUN-Cit,Cit, Di-N-citronoyl-tunicamycin] | 0.36 ± 0.12 µg/mL (≈ 0.413 µM) | > 200 µg/mL | 5.2 ± 1.8 µg/mL (≈ 5.97 µM) | 6.25 µg/mL (≈ 7.18 µM) | 128 | 6.29 ± 2.1 µg/mL (≈ 7.22 µM) | > 200 µg/mL | 83 ± 29 µg/mL (≈ 95.3 µM) | 100 µg/mL (≈ 115 µM) | 8 | 218 µg/mL (≈ 250 µM) | 400 µg/mL (≈ 459 µM) | > 400 µg/mL | 70.3 µg/mL (≈ 80.7 µM) | > 400 µg/mL | 170 ± 60 µg/mL (≈ 195 µM) | 177 µg/mL (≈ 203 µM) | > 200 µg/mL | > 400 µg/mL | 16.3 ± 8.8 µg/mL (≈ 18.7 µM) | MIC (Mtb H37Rv ATCC27294; [5]): 3.4 ± 3.1 µg/mL (≈ 3.9 µM); MIC (Mtb H37Rv ATCC27294; [6]): 16.3 µg/mL (≈ 18.7 µM); MIC (Mtb H37Rv ATCC27294; [7]): 3.4 µg/mL (≈ 3.9 µM); Relative Therapeutic Index (RTI), Mtb H37RV a (Mtb H37Rv ATCC27294): 49; Relative Therapeutic Index (RTI), Mtb H37RV b (Mtb H37Rv ATCC27294): 235; LD50 values, HEK293 (HEK293 cells): N/A (N/A = not available. No or low cytotoxicity observed at highest, saturating concentration tested (400 µg mL-1)); Minimal Lethal Dose, HEK 293 (HEK293 cells): > 400 µg/mL; LD50 values, HepG2 (HepG2 cells): N/A (N/A = not available. No or low cytotoxicity observed at highest, saturating concentration tested (400 µg mL-1)); Minimal Lethal Dose, HepG2 (HepG2 cells): > 400 µg/mL; LD50 values, Raji (Raji cells): 177.75 ± 75.17 µg/mL
